According to publication PMC12051620, “Molecular basis underlying the specificity of an antagonist AA92593 for mammalian melanopsins” (The Journal of Biological Chemistry, 2025):
Entries after “also recorded” stand apart in the source; their conditions may differ.

Assays:
Assay in all cases: NanoBiT Gq dissociation assay using Gqα/R183Q-LgBiT
Type in all cases: cell-based
[1] = target: T1, human melanopsin F94^2.61C/S188^ECL2T/S269^6.52A mutant (Homo sapiens, UniProt Q9UHM6, F127C/S222T/S313A); conditions: 1.67 and 16.7 μM AA92593; COS-1 cells
T1 construct: expressed in transfected cells; host or cells: COS-1
T1 sequence (Q9UHM6 1-384 F127C/S222T/S313A): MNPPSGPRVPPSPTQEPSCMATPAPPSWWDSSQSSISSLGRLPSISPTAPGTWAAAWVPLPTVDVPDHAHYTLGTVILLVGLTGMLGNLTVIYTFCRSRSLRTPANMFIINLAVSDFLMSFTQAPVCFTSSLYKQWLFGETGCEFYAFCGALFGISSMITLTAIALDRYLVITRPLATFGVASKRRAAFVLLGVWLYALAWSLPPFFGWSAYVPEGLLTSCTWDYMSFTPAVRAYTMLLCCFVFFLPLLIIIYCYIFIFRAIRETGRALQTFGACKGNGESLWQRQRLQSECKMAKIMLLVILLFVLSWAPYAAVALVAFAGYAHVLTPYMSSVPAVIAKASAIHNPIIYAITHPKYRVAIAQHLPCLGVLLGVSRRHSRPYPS
From the text: (§1) As described above, we have assessed the inhibitory effect of AA92593 using the GsX GloSensor assay. To confirm whether an antagonistic effect could be observed in another experimental system, we used the NanoBiT G protein dissociation assay ([23]). In this assay, Gq activation (dissociation) is detected as a decrease in NanoLuc luminescence from the Lg-BiT fragment inserted with Gqα and the Sm-BiT fragment fused with Gβγ (see “Experimental procedures”) ([23], [24]). If an antagonistic effect is observed in the NanoBiT assay, the light-dependent decrease in luminescence (Gq dissociation) by melanopsin would be reduced in the presence of AA92593. […] A recent study reported that the introduction of a GTPase-deficient substitution, R183Q, on Gqα increased GPCR-induced Gq dissociation signals in a BRET-based biosensor assay, TRUPATH ([25]). […]
(§2) For GloSensor assay, opsins, GloSensor assay sensor (coded by pGlo-22F), and NanoBiT-tagged G proteins were transiently expressed in COS-1 cells (kindly provided from Dr David Farrens, Oregon Health and Science University) using PEI as described previously ([24], [52]). […] For GFP-fluorescence microscopy, a 35-mm cell culture dish (IWAKI) was transfected with 2 μg melanopsin-GFP plasmid and 8 μg PEI in 400 μl Opti-mem and 1.2 ml D-MEM. […]
(§3) The transfected COS-1 cells were incubated at 37 °C, 5% CO2 for 1 day, and the medium was aspirated, followed by the addition of 50 μl of HBSS containing 33.3, 3.33, or 0 μM AA92593, 0.5% DMSO, and 10 μM coelenterazine h (Wako). […] After incubation of the cells, luminescence measurement was interrupted, the plate was ejected, and the cells were added 50 μl of HBSS containing 0.2 μM 9-cis-retinal. […] Luminescence was measured using GM-2000 or GM-3510 microplate reader (Promega). Luminescence level of each well was measured every 18 s with integration time of 0.3 s. To illuminate opsins, luminescence measurement was interrupted, the plate was ejected, and the plate was illuminated by white light with CN-160 LED video light (light intensity, ∼9 mW/cm^2) (NEEWER). After illumination, luminescence measurement was resumed. […]

[2] = target: T2, human melanopsin F94^2.61C/S188^ECL2T/W189^ECL2F/S269^6.52A mutant (Homo sapiens, UniProt Q9UHM6, F127C/S222T/S313A/W223F); conditions: 1.67 and 16.7 μM AA92593; COS-1 cells
T2 construct: expressed in transfected cells; host or cells: COS-1
T2 sequence (Q9UHM6 1-384 F127C/S222T/W223F/S313A): as the sequence (Q9UHM6 1-384 F127C/S222T/S313A) above, with W223F counted along it
From the text: as §1, §2, §3

[3] = target: T3, human melanopsin WT (Homo sapiens, UniProt Q9UHM6); conditions: 1.67 and 16.7 μM AA92593; COS-1 cells; concentration-dependent
T3 construct: expressed in transfected cells; host or cells: COS-1
T3 sequence (Q9UHM6 1-384 limits assumed): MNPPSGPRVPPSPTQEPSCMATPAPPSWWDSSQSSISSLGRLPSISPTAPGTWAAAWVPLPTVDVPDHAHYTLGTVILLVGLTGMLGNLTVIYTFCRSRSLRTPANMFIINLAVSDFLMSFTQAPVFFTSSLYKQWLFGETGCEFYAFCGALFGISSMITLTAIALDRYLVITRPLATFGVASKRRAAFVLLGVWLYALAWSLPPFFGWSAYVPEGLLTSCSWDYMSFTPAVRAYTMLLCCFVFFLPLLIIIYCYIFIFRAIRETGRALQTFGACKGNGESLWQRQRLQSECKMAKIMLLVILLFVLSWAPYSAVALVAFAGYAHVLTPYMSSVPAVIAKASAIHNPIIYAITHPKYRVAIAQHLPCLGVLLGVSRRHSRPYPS
From the text: as §1, §2, §3

In the case of `COc1ccc(S(=O)(=O)N2CCCCC2)cc1C` [AA92593], the “AA92593-dependent inhibitory effect on Gq activation compared to WT” value [1] is reported as “much reduced; also recorded: almost insensitive”, the “sensitivity to AA92593 in Gq dissociation” value [2] is reported as “little sensitivity” and the “effect on light-dependent decrease in NanoLuc luminescence (Gq dissociation)” value [3] is reported as “weakened”.
